The text below walks through data of patent publication US9211244B2, “Method for anti-skin aging using caffeamide derivative” (CHINA MEDICAL UNIVERSITY, priority 2013, dated 2015).

The target of data set [1] is T1, tyrosinase (Mus musculus, UniProt P11344).
T1 construct: endogenous in cells; host or cells: B16 cells
T1 sequence (P11344 19-533): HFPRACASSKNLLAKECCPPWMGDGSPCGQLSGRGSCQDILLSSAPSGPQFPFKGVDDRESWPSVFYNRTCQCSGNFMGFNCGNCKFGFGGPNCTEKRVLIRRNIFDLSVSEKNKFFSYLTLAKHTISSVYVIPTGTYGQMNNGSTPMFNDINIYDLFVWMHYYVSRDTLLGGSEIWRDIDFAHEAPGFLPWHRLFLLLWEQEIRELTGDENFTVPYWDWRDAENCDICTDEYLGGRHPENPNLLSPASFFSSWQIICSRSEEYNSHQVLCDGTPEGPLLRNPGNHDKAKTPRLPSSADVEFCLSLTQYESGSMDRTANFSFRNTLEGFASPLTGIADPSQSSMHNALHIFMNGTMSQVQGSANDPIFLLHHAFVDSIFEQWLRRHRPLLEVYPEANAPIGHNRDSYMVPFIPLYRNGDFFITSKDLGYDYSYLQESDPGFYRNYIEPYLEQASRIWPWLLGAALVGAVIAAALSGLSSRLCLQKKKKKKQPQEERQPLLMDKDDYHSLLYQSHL
In words: Activity analysis of tyrosinase in B16 cells. As to conditions: 5 μM to 125 μM, 48 hours. In kind it is cell-based. Here is the method:
It has been known that tyrosinase is one of the primary protein participating in melanogenesis. In this experiment, different concentrations (5 μM to 125 μM) of the compounds of formula […] or (2) prepared in Example 1 were used to treat B16 cells (1.5×10^4) for 48 hours, and the activity of tyrosinase was analyzed by western blotting.

In data set [2] the test system is procollagen-1. In words: Promotion test of the expression of collagen, western blot. In kind it is cell-based, human. The note with it: 25 μM; UVB 40 mJ/cm^2. The protocol:
(§1) It has been known that Smad3 protein can promote the expression level of procollagen-1, and Smad7 protein can inhibit the expression level of Smad3 protein. After cells were irradiated with UV rays, the expression levels of procollagen-1 and Smad3 protein will reduce and the expression level of Smad7 protein will increase. Therefore, in this experiment, the expression levels of intracellular procollagen-1 protein, Smad3 protein and Smad7 protein were analyzed by western blotting.
(§2) Specifically, when the concentration of the compound of formula (2) was 25 μM, the protein expression level of Smad7 was 1.1 times as compared to that of the untreated cells.
A general note: A western blot detects proteins with antibodies after separation by electrophoresis.

Data set [3] has as its system Smad7. The data set is described as above. The format is cell-based, human. The note with it: 25 μM; UVB 40 mJ/cm^2. The protocol: as §1, §2
In data set [4] the test system is Smad3. The data set is described as above. The note with it: 25 μM; UVB 40 mJ/cm^2. In kind it is cell-based, human. Here is the method: as §1, §2
Data set [5] has as its system MMP-1. Put plainly: MMP expression, western blot, UVB-irradiated Hs68 cells. In kind it is cell-based, human. The note with it: 5 μM; UVB 40 mJ/cm^2; 48 hours. Here is the method:
(§3) Human fibroblast Hs68 cells (5×10^5) (the number of Bioresource Collection and Research Center (BCRC): 60038) were counted and incubated in a culture dish with a diameter of 10 cm (the culture dish components were adjusted by L-glutamine (4 mM) to have 1.5 g/L NaHCO3, 4.5 g/L glucose, and 90% Dulbecco's Modified Eagle's Medium with 10% fetal bovine serum (FBS)). The medium was removed until human fibroblast Hs68 cells grow to a confluence of 80%, and the cells were then washed once with 5 ml PBS (phosphate buffered saline). Then, 3 ml phenol red-free medium which contain different concentrations (0 μM to 25 μM) of the compounds of formula (1) or formula (2) prepared in Example 1 were added into the culture dish. After incubating for 1 hour, the cells were irradiated by UV light (UVB with an intensity of 40 mJ/cm^2) for 15 seconds. Next, the phenol red-free medium which contains different concentrations (0 μM to 25 μM) of the compounds of formula (1) or formula (2) prepared in Example 1 were added into the culture dish sequentially. After incubation in an incubator (37° C., 5% CO2) for 48 hours, the cells were collected.
(§4) The collected cells were treated with a sonication buffer (containing Na3VO4 (100 μM), phenylmethanesulfonyl fluoride (PMSFL, 100 mg/ml), leupeptin (20 mg/ml), Tris-HCl (pH 7.4, 50 μM), NaCl (37.5 μM), DL-dithiothretiol (250 μM), sodium deoxycholate (3 μM), EDTA (1 μM), SDS (0.1%), and Igepal™ CA-630 (Sigma-Aldrich, 1%)) and sonicated to rupture the cell membranes. Then, the organelles and fragments of the cells were precipitated by centrifugation, and the supernatant, which contains proteins in the cytosol was collected. Next, the obtained proteins were separated by SDS-PAGE, and transferred to a membrane by western blotting. Antibodies were used to recognize the targeted proteins, such as MMP-1, MMP-3, MMP-9, and actin. The images were recorded by a Luminescent imagination technology (LAS-4000, FUJIFILM), and the variation of the proteins expression levels were determined by a quantitative analysis software (multi Gauge 2.2, Steware Technology Inc.).

Data set [6] deals with MMP-3. Described as above. As to conditions: 25 μM; UVB 40 mJ/cm^2; 48 hours. The format is cell-based, human. Here is the method:
as §3, §4

The subject of data set [7] is human fibroblast Hs68 cells. Put plainly: Cellular toxicity evaluation, MTT assay. The format is cell-based. The note with it: 24 hours. The protocol: MTT (3-(4,5-dimethylthiazol-2-yl)-2,5-diphenyl tetrazolium bromide) assay was used to determine the cellular toxicity of the caffeamide derivatives described herein. First, different concentrations (0 μM to 100 μM) of the compounds of formula (1) or formula (2) prepared in Example 1 of the present invention were added, respectively, into a 96-well microplate which containing human fibroblast Hs68 cells (1×10^4 cells per well). After the cells were incubated in an incubator at 37° C. and 5% CO2 for 24 hours, 15 μl of MTT solution (0.5 mg/ml; dissolved in PBS) was added into the microplate and the human fibroblast Hs68 cells were incubated for 3 hours. Next, 75 μl SDS (sodium dodecyl sulfate) solution (10% SDS was dissolved in 0.01N HCl) was added into the microplate. After the cells were maintained for 24 hours, the absorbances of each well were measured at a wavelength of 570 nm by an enzyme immunoassay analyzer. Finally, the cell survival rate was calculated by the following formula to observe the cellular toxicity of compounds. The results are shown in Table 5, FIG. 10a and FIG. 10b. Cell survival rate(%)=absorbance of the experimental group/absorbance of the control group.
For orientation: Tetrazolium assays rely on reduction of a dye to a coloured formazan, in cell work by metabolically active cells.

For `O=C(C=Cc1ccc(O)c(O)c1)NCCc1ccc(Br)cc1` [Compound of formula (2)], the “activity of the tyrosinase in the cells” value in data set [1] is “inhibited”. The “protein expression level of procollagen-1 decreased by UVB, reversed to” value in data set [2] is listed as 0.4 times. Besides, the “protein expression level of Smad7 as compared to that of the untreated cells” value in data set [3] amounted to 1.1 times. The “protein expression level of Smad3 inhibited by UVB, reversed to” value in data set [4] is reported as 0.5 times. The “expression level of MMP-1 as compared to that of the untreated cells” value in data set [5] was found to be 1.1 times. The “expression level of MMP-3 as compared to that of the untreated cells” value in data set [6] is 1.0 times. Further, the “Cell survival rate (%)” value in data set [7] (5 μM) is on record as 92.0 ± 1.0%; in data set [7] (10 μM) it was 90.4 ± 2.3%; in data set [7] (25 μM), 89.7 ± 2.8%; in data set [7] (50 μM), 86.1 ± 1.4%.
